Assay results published in the supplement of paper PMC10307832.

Tests used:
Experiment in all cases: relative viability (nuclei count vs DMSO), 5 days (fraction); higher = more cells survive
CAL-12T = tested on: CAL-12T
In short: (§1)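 Dosing by pin tool came one day after lung cancer cell lines were seeded in 1536-well plates, using either one drug or a fixed anchor-drug dose plus five library-drug doses (not always all listed) in √10 steps. After 5 days, nuclei were counted on 4× images. Relative viability is treated-well nuclei count divided by vehicle-well nuclei count, and values are medians of duplicate plates.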

BEN = tested on: BEN
In short: as §1

201T = tested on: 201T
In short: as §1

NCI-H3122 = tested on: NCI-H3122
In short: as §1

HCC-44 = tested on: HCC-44
In short: as §1

LCLC-103H = tested on: LCLC-103H
In short: as §1

LXF-289 = tested on: LXF-289
In short: as §1

HOP-62 = tested on: HOP-62
In short: as §1

NCI-H1437 = tested on: NCI-H1437
In short: as §1

NCI-H727 = tested on: NCI-H727
In short: as §1

NCI-H2087 = tested on: NCI-H2087
In short: as §1

RERF-LC-KJ = tested on: RERF-LC-KJ
In short: as §1

NCI-H2228 = tested on: NCI-H2228
In short: as §1

NCI-H2405 = tested on: NCI-H2405
In short: as §1

NCI-H1793 = tested on: NCI-H1793
In short: as §1

HCC-827 = tested on: HCC-827
In short: as §1

NCI-H1395 = tested on: NCI-H1395
In short: as §1

NCI-H1944 = tested on: NCI-H1944
In short: as §1

SK-LU-1 = tested on: SK-LU-1
In short: as §1

LCLC-97TM1 = tested on: LCLC-97TM1
In short: as §1

NCI-H322M = tested on: NCI-H322M
In short: as §1

NCI-H647 = tested on: NCI-H647
In short: as §1

Oc1nc(-c2ccc(C(F)(F)F)cc2)nc2c1CSCC2 [XAV939] + C[C@]1(O)C[C@@H](c2nc(-c3ccc4ccc(-c5ccccc5)nc4c3)c3c(N)nccn32)C1 [Linsitinib] (partner 1 µM)
relative viability (CAL-12T; first compound 0.08 µM): 0.87
relative viability (CAL-12T; first compound 0.253 µM): 0.809
relative viability (CAL-12T; first compound 0.8 µM): 0.667
relative viability (CAL-12T; first compound 2.53 µM): 0.667
relative viability (BEN; first compound 0.08 µM): 1.17
relative viability (BEN; first compound 0.253 µM): 0.894
relative viability (BEN; first compound 0.8 µM): 0.934
relative viability (201T; first compound 0.08 µM): 0.937
relative viability (201T; first compound 0.253 µM): 0.8
relative viability (201T; first compound 0.8 µM): 0.857
relative viability (201T; first compound 2.53 µM): 0.873
relative viability (NCI-H3122; first compound 0.08 µM): 1.02
relative viability (NCI-H3122; first compound 0.253 µM): 0.986
relative viability (NCI-H3122; first compound 0.8 µM): 0.951
relative viability (NCI-H3122; first compound 2.53 µM): 0.557
relative viability (HCC-44; first compound 0.08 µM): 0.789
relative viability (HCC-44; first compound 0.253 µM): 0.673
relative viability (HCC-44; first compound 0.8 µM): 0.659
relative viability (HCC-44; first compound 2.53 µM): 0.651
relative viability (LCLC-103H; first compound 0.08 µM): 1.05
relative viability (LCLC-103H; first compound 0.253 µM): 0.943
relative viability (LCLC-103H; first compound 0.8 µM): 1.19
relative viability (LCLC-103H; first compound 2.53 µM): 1.02
relative viability (LXF-289; first compound 0.08 µM): 0.991
relative viability (LXF-289; first compound 0.253 µM): 0.954
relative viability (LXF-289; first compound 0.8 µM): 0.975
relative viability (LXF-289; first compound 2.53 µM): 0.952
relative viability (HOP-62; first compound 0.08 µM): 1.01
relative viability (HOP-62; first compound 0.253 µM): 0.882
relative viability (HOP-62; first compound 0.8 µM): 0.954
relative viability (HOP-62; first compound 2.53 µM): 0.939
relative viability (NCI-H1437; first compound 0.08 µM): 1.21
relative viability (NCI-H1437; first compound 0.253 µM): 0.878
relative viability (NCI-H1437; first compound 0.8 µM): 0.873
relative viability (NCI-H1437; first compound 2.53 µM): 0.477
relative viability (NCI-H727; first compound 0.08 µM): 0.315
relative viability (NCI-H727; first compound 0.253 µM): 0.246
relative viability (NCI-H727; first compound 0.8 µM): 0.233
relative viability (NCI-H727; first compound 2.53 µM): 0.372
relative viability (NCI-H2087; first compound 0.08 µM): 1.14
relative viability (NCI-H2087; first compound 0.253 µM): 0.936
relative viability (NCI-H2087; first compound 0.8 µM): 0.939
relative viability (NCI-H2087; first compound 2.53 µM): 0.672
relative viability (RERF-LC-KJ; first compound 0.08 µM): 0.881
relative viability (RERF-LC-KJ; first compound 0.253 µM): 0.765
relative viability (RERF-LC-KJ; first compound 0.8 µM): 0.789
relative viability (RERF-LC-KJ; first compound 2.53 µM): 0.661
relative viability (NCI-H2228; first compound 0.08 µM): 0.684
relative viability (NCI-H2228; first compound 0.253 µM): 0.683
relative viability (NCI-H2228; first compound 0.8 µM): 0.81
relative viability (NCI-H2228; first compound 2.53 µM): 0.551
relative viability (NCI-H2405; first compound 0.08 µM): 1.01
relative viability (NCI-H2405; first compound 0.253 µM): 0.863
relative viability (NCI-H2405; first compound 0.8 µM): 0.96
relative viability (NCI-H2405; first compound 2.53 µM): 0.801
relative viability (NCI-H1793; first compound 0.08 µM): 0.964
relative viability (NCI-H1793; first compound 0.253 µM): 0.709
relative viability (NCI-H1793; first compound 0.8 µM): 0.774
relative viability (NCI-H1793; first compound 2.53 µM): 0.719
relative viability (HCC-827; first compound 0.08 µM): 0.995
relative viability (HCC-827; first compound 0.253 µM): 0.91
relative viability (HCC-827; first compound 0.8 µM): 0.952
relative viability (HCC-827; first compound 2.53 µM): 0.942
relative viability (NCI-H1395; first compound 0.08 µM): 1.09
relative viability (NCI-H1395; first compound 0.253 µM): 1.04
relative viability (NCI-H1395; first compound 0.8 µM): 1.11
relative viability (NCI-H1395; first compound 2.53 µM): 0.974
relative viability (NCI-H1944; first compound 0.08 µM): 1.22
relative viability (NCI-H1944; first compound 0.253 µM): 1.12
relative viability (NCI-H1944; first compound 0.8 µM): 1.24
relative viability (NCI-H1944; first compound 2.53 µM): 1.26
relative viability (SK-LU-1; first compound 0.08 µM): 1.2
relative viability (SK-LU-1; first compound 0.253 µM): 1.03
relative viability (SK-LU-1; first compound 0.8 µM): 1.02
relative viability (SK-LU-1; first compound 2.53 µM): 1.07
relative viability (LCLC-97TM1; first compound 0.08 µM): 0.192
relative viability (LCLC-97TM1; first compound 0.253 µM): 0.19
relative viability (LCLC-97TM1; first compound 0.8 µM): 0.206
relative viability (LCLC-97TM1; first compound 2.53 µM): 0.167
relative viability (NCI-H322M; first compound 0.08 µM): 0.966
relative viability (NCI-H322M; first compound 0.253 µM): 0.872
relative viability (NCI-H322M; first compound 0.8 µM): 0.909
relative viability (NCI-H322M; first compound 2.53 µM): 0.618
relative viability (NCI-H647; first compound 0.08 µM): 1.13
relative viability (NCI-H647; first compound 0.253 µM): 0.864
relative viability (NCI-H647; first compound 0.8 µM): 1.06
relative viability (NCI-H647; first compound 2.53 µM): 1.02
